The text below walks through data of paper PMC3969230, “Structural and functional characterization of NanU, a novel high-affinity sialic acid-inducible binding protein of oral and gut-dwelling Bacteroidetes species” (Biochemical Journal, 2014).

Assay [1] has as its system NanU. The experiment in a line: Steady-state tryptophan fluorescence titration, NanU (species not told apart). The note with it: for binding to NanU (in words): tryptophan fluorescence quenching. The class given is binding. Here is the method: (§1) Proteins were diluted in 25 mM sodium phosphate buffer, pH 7.4, to a final concentration of 0.5 μM and incubated at 25°C for 5 min before substrate titration. The quenching of intrinsic tryptophan fluorescence was measured at 25°C with constant stirring in a 104F-QS quartz fluorescence semi-micro cell (Hellma Analytics) using a Varian Cary Eclipse spectrofluorometer. The excitation and emission wavelengths were 295 nm (5 nm slit width) and 330 nm (10 nm slit width) respectively. Corrections for background fluorescence changes due to dilution effects with the stepwise addition of ligands were made by buffer titrations. Analysis and curve fitting of titration data were performed in Prism 5 (GraphPad Software), with the equilibrium dissociation constants (Kd) for one site-specific binding calculated using eqn (1): (1) Y=Bmax×X/(Kd+X) where X is the final concentration of ligand, Y is the percentage increase in protein quenching in relation to the protein-only fluorescence signal and Bmax is the extrapolated maximum specific binding.

Assay [2] addresses BF-NanU (BF1720) (Bacteroides fragilis, UniProt Q5LEN2). The experiment in a line: Steady-state tryptophan fluorescence titration, BF-NanU. It counts as binding. Here is the method:
as §1

Assay [3] has as its target TF-NanU (TF0034) (Tannerella forsythia, UniProt G8UIQ0). Description: Steady-state tryptophan fluorescence titration, TF-NanU. The note with it: 0.5 μM protein, 25 mM sodium phosphate pH 7.4, 25°C, one-site specific binding. Here is the method: as §1
The target in assay [4] is lectin domain of the Vibrio cholerae sialidase. Details: method as in PMID 15226294. The note with it: read-out: affinity; cited from earlier work.
For assay [5], the target named is SiaP. Details: method as in PMID 16702222. The note with it: cited from earlier work.
Assay [6] concerns BT1043. Details: method as in PMID 19191477. The note with it: non-physiological ligand; cited from earlier work.
For assay [7], the system named is SusD. Further details: method as in PMID 18611383. The note with it: non-physiological ligand; cited from earlier work.
[8] abbreviates: 0.5 μM protein, 25 mM sodium phosphate pH 7.4, 25°C, one-site specific binding.

Values joined by “and” are separate entries in the source; they are usually repeats but may differ in a detail not shown here. Equal entries are not always repeated.

TF-NanU (TF0034), sequence (G8UIQ0 entry or part of it): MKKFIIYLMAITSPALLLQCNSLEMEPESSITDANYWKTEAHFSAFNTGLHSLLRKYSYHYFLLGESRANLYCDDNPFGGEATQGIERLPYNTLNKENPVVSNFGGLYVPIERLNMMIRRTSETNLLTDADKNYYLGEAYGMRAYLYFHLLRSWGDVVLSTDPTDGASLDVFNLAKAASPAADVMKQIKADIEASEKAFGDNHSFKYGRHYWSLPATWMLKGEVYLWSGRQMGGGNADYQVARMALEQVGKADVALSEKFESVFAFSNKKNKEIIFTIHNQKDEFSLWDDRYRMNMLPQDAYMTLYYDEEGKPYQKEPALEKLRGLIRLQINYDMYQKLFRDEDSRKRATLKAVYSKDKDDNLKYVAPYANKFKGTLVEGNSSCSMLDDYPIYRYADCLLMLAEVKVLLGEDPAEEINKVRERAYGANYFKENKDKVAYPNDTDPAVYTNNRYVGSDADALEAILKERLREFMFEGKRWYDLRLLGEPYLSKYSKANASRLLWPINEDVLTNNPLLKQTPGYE
BF-NanU (BF1720), sequence (Q5LEN2 entry or part of it): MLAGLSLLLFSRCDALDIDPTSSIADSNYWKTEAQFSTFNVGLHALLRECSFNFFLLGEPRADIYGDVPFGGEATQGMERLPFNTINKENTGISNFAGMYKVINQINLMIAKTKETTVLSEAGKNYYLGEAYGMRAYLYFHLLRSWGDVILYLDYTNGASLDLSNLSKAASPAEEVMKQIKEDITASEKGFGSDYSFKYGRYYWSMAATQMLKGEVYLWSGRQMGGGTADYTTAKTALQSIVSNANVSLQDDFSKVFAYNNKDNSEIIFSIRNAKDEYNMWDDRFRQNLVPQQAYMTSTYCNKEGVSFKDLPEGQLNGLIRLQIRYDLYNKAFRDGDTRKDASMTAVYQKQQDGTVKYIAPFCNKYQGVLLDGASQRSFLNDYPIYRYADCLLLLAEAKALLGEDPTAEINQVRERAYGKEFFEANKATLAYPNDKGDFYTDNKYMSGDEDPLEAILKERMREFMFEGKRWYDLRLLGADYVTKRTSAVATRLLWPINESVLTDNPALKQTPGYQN

With `CC(=O)N[C@H]1NC[C@H](C(=O)O)[C@H](O)[C@@H]1O` [Siastatin B, siastatin B], the “binding to NanU (in words)” value in assay [1] was “No binding”; in assay [1] (listed as siastatin B) it was “neither”.
On to `O=C(CO)N[C@H]1[C@H]([C@H](O)[C@H](O)CO)O[C@](O)(C(=O)O)C[C@@H]1O` [Neu5Gc, N-glycolylneuraminic acid], for which the “affinity lower than Neu5Ac (fold)” value in assay [1] (Neu5Gc compared with Neu5Ac) came out at 5 fold. In addition, the Kd in assay [2] (setting [8]) is 2000 nM and 1670 nM and 1700 nM; in assay [3], 1700 nM and 1990 nM and 2000 nM.
Consider `CC(=O)NC1C(O)CC(OCC2OC(OC3C(CO)OC(O)C(O)C3O)C(O)C(O)C2O)(C(=O)O)OC1C(O)C(O)CO` (stereo not shown) [6′-siallyl-lactose], for which the “binding to NanU (in words)” value in assay [1] is “did not display any interaction”.
On to `CC(=O)N[C@H]1[C@H]([C@H](O)[C@H](O)CO)OC(C(=O)O)=C[C@@H]1N=C(N)N` [Zanamivir, zanamivir], for which the Kd was 900 nM and 905 nM in assay [2] (setting [8]); 1100 nM and 1130 nM in assay [3].
In the case of `CC(=O)NC1C(O)CC(OC2C(O)C(CO)OC(OC3C(CO)OC(O)C(O)C3O)C2O)(C(=O)O)OC1C(O)C(O)CO` (stereo not shown) [3′-siallyl-lactose], the “binding to NanU (in words)” value in assay [1] is listed as “did not display any interaction”.
In the case of `CC(=O)N[C@H]1[C@H]([C@H](O)[C@H](O)CO)OC(O)(C(=O)O)C[C@@H]1O` (stereo partly shown) [Neu5Ac, 5-N-acetylneuraminic acid], the Kd is roughly 400 nM in assay [1] (NanU from two Bacteroidetes species, approximate summary value); 30000 nM in assay [4]; 397 nM and 400 nM in assay [2] (setting [8]); 409 nM in assay [2] (BF-NanU expressed and purified from cells grown in M9 medium plus glycerol (results not shown)); 120 nM in assay [5]; 425 nM and 400 nM in assay [3].
Turning to sialyl-lactose, the “binding to NanU (in words)” value in assay [1] is “does not bind”.
On to `CC(=O)N[C@H]1C(O)O[C@H](CO)[C@@H](O[C@@H]2O[C@H](CO)[C@H](O)[C@H](O)[C@H]2O)[C@@H]1O` (stereo partly shown) [N-acetyl lactosamine], for which the “binding interaction (range in words)” value in assay [6] was “in the mM range”.
Regarding cyclodextrin, in assay [7], the “binding interaction (range in words)” value is “in the hundreds of μM range”.
Consider `CC(=O)N[C@H]1[C@H]([C@H](O)[C@H](O)CO)OC(C(=O)O)=C[C@@H]1O` [Neu5Ac2en, 2-deoxy-2,3-didehydro-Neu5Ac], for which the Kd in assay [2] (setting [8]) was 5600 nM and 5550 nM; in assay [3], 8300 nM and 8290 nM.
As to `CCOC(=O)C1=C[C@@H](OC(CC)CC)[C@H](NC(C)=O)[C@@H](N)C1` [Oseltamivir, oseltamivir], the figures for the “binding to NanU (in words)” value in assay [1] and in assay [1] (listed as oseltamivir) were “No binding” and “neither”, respectively.
